Assay results from patent publication US20150272939A1, “Identification of Small Molecule Inhibitors of Jumonji AT-Rich Interactive Domain 1A (JARID1A) and 1B (JARID1B) Histone Demethylase” (Yale University, priority 2012, published 2015).
Read-outs that look alike come from different tables or passages of the source.

Assays:
JARID1B = target: T1, JARID1B (Homo sapiens, UniProt Q9UGL1); assay: FLAG-JARID1B histone demethylase assay with AlphaScreen detection (HTS and dose response); assay type: biochemical; conditions: for inhibition at 20 µM / Inhibitory effect (percent): high-throughput screen, compound 20 μM; for inhibition at 20 µM: read-out: Inhibitory effect (percent); for Validation result of HTS active: effect of the compound in the JARID1B AlphaScreen demethylase assay / Assay Signal (percent): validation of HTS actives; for Validation result of HTS active: effect of the compound in the JARID1B AlphaScreen demethylase assay: total signal before subtraction of artifact signal; for Assay − Artifact Signal (percent): assay signal minus artifact signal; for Assay Signal (percent): effect of compound in JARID1B AlphaScreen assay;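 on Assay Signal (percent): compound tested at 20 µM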;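 on Assay − Artifact Signal (percent): compound tested at 20 µM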;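 on all read-outs here: FLAG-tagged JARID1B at 4 nM acting on a biotinylated H3K4me3 peptide, demethylation read by AlphaScreen luminescence, with hits checked against bio-H3K4me2 without enzyme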
T1 construct: The FLAG tagged full length JARID1B enzyme was expressed in Sf21 insect cells using FLAG-JARID1B baculoviruses; FLAG (N); made in house; host or cells: Sf21 insect cells (baculovirus)
T1 sequence (Q9UGL1 whole entry): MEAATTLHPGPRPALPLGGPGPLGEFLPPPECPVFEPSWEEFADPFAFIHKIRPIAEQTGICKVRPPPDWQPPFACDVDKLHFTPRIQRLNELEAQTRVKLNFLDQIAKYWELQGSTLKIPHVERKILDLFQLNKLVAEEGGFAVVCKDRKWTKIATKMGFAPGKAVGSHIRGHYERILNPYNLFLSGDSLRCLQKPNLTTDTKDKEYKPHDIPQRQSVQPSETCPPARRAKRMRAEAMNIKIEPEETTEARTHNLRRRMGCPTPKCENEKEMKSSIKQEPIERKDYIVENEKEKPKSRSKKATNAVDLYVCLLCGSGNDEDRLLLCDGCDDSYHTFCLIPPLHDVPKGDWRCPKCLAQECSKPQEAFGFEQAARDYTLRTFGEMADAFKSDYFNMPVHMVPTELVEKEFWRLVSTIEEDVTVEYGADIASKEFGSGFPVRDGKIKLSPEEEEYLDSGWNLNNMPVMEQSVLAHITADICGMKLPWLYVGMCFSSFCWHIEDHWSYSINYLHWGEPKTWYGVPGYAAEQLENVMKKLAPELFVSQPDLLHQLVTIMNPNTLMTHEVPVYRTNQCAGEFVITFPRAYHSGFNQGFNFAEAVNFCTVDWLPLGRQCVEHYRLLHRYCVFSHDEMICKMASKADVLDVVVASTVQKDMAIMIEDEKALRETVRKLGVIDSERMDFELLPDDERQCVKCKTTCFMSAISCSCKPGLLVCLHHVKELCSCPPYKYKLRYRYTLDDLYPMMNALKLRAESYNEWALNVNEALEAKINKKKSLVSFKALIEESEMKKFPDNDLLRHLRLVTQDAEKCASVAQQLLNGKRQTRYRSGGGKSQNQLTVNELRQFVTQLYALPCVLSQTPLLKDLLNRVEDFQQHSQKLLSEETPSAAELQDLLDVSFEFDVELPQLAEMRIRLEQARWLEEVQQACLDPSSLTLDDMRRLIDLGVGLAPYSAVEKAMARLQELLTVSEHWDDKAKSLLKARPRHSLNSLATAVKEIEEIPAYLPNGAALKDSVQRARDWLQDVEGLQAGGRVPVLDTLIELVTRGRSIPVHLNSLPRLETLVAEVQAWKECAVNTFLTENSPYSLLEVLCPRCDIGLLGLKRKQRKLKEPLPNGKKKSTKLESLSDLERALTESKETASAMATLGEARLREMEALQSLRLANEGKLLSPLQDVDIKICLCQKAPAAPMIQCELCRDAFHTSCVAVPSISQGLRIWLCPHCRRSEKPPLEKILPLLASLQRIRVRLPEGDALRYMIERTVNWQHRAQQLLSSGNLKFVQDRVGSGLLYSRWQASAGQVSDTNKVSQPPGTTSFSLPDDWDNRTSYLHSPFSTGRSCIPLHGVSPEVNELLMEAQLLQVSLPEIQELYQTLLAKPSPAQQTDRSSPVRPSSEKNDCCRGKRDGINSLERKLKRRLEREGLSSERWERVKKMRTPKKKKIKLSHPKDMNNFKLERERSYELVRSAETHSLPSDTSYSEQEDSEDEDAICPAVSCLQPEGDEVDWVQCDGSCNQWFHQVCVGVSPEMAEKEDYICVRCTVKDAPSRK

[1] = AlphaScreen counterscreen against bio-H3K4me2 peptide in the absence of enzyme (artifact signal); conditions: for Artifact signal: effect of the compound when it is incubated with bio-H3K4me2 peptide: counterscreen, no enzyme; for Artifact Signal (percent): effect of the compound when incubated with bio-H3K4me2 peptide (counterscreen, no enzyme);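 on all read-outs here: counterscreen run without enzyme against bio-H3K4me2 peptide to remove false positive hits from the JARID1 demethylase AlphaScreen screen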
[2] = standard demethylase conditions (10 μM α-KG, 50 μM Fe (II))

O=C(OC[C@H]1O[C@@H](OC(=O)c2cc(O)c(O)c(OC(=O)c3cc(O)c(O)c(O)c3)c2)[C@H](OC(=O)c2cc(O)c(O)c(OC(=O)c3cc(O)c(O)c(O)c3)c2)[C@@H](OC(=O)c2cc(O)c(O)c(OC(=O)c3cc(O)c(O)c(O)c3)c2)[C@@H]1OC(=O)c1cc(O)c(O)c(OC(=O)c2cc(O)c(O)c(O)c2)c1)c1cc(O)c(O)c(OC(=O)c2cc(O)c(O)c(O)c2)c1 (stereo in doubt) [YU034398, TANNIC ACID, reference compound]
inhibition at 20 µM (JARID1B; [2]): 105% | Validation result of HTS active: effect of the compound in the JARID1B AlphaScreen demethylase assay (JARID1B): 104.83 | Artifact signal: effect of the compound when it is incubated with bio-H3K4me2 peptide [1]: 99.54

Cc1cccc(NC(c2ccccn2)c2ccc3cccnc3c2O)n1 (stereo not drawn) [YU172178]
Assay − Artifact Signal (percent) (JARID1B): 8.53% | inhibition at 20 µM (JARID1B; [2]): 72.3% | Assay Signal (percent) (JARID1B): 46.45% | Artifact Signal (percent) [1]: 37.93%

Cc1ccc(CNn2cnnc2S)cc1 [YU145266]
Assay − Artifact Signal (percent) (JARID1B): 44.07% | inhibition at 20 µM (JARID1B; [2]): 45.7% | Assay Signal (percent) (JARID1B): 45.11% | Artifact Signal (percent) [1]: 1.04%

Cl.Cn1cccc1CNCc1ccncc1 [YU145853]
Assay − Artifact Signal (percent) (JARID1B): 57.65% | inhibition at 20 µM (JARID1B; [2]): 76.6% | Assay Signal (percent) (JARID1B): 66.64% | Artifact Signal (percent) [1]: 8.99%

Oc1ccc2c(c1)OCC1(O)Cc3cc(O)c(O)cc3C21 (stereo not drawn) [YU154998, BRAZILIN, reference compound]
Assay − Artifact Signal (percent) (JARID1B): 15.98% | inhibition at 20 µM (JARID1B; [2]): 70.3% | Assay Signal (percent) (JARID1B): 15.51% | Artifact Signal (percent) [1]: −0.48%

C[n+]1cc2c3c(ccc2c2ccc4cc5c(cc4c21)OCO5)OCO3.O=S(=O)([O-])O [YU155443, SANGUINARINE SULFATE, reference compound]
Assay − Artifact Signal (percent) (JARID1B): 17.36% | Inhibitory effect (percent) (JARID1B; [2]): 62.80% | Assay Signal (percent) (JARID1B): 5.51% | Artifact Signal (percent) [1]: −11.85%

C/C1=C2/[N-][C@H]([C@H](CC(N)=O)[C@@]2(C)CCC(=O)NC[C@@H](C)OP(=O)([O-])O[C@H]2[C@@H](O)[C@@H](n3cnc4cc(C)c(C)cc43)O[C@@H]2CO)[C@]2(C)N=C(/C(C)=C3N=C(/C=C4N=C1[C@@H](CCC(N)=O)C\4(C)C)[C@@H](CCC(N)=O)[C@]\3(C)CC(N)=O)[C@@H](CCC(N)=O)[C@]2(C)CC(N)=O.[Co] [YU034137, COBALAMINE, reference compound]
Assay − Artifact Signal (percent) (JARID1B): 28.34% | Inhibitory effect (percent) (JARID1B; [2]): 63.90% | Assay Signal (percent) (JARID1B): 27.06% | Artifact Signal (percent) [1]: 1.27%

CNC(C(=O)N(C)OC)C(C)C (stereo not drawn) [YU035100]
Assay − Artifact Signal (percent) (JARID1B): 11.75% | inhibition at 20 µM (JARID1B; [2]): 88% | Assay Signal (percent) (JARID1B): 13.14% | Artifact Signal (percent) [1]: 1.39%

COC(=O)c1cccc(NC(c2cccnc2)c2ccc3cccnc3c2O)c1 (stereo not drawn) [YU172172]
inhibition at 20 µM (JARID1B; [2]): 60.1% | Validation result of HTS active: effect of the compound in the JARID1B AlphaScreen demethylase assay (JARID1B): 63.48 | Artifact signal: effect of the compound when it is incubated with bio-H3K4me2 peptide [1]: 56.78

O=C(O)CC(CC(=O)Nc1cc(C(F)(F)F)ccc1N1CCOCC1)c1ccccc1 (stereo not drawn) [YU016748]
Assay − Artifact Signal (percent) (JARID1B): 8.43% | inhibition at 20 µM (JARID1B; [2]): 104% | Assay Signal (percent) (JARID1B): 19.64% | Artifact Signal (percent) [1]: 11.20%

CCC(=O)c1c(O)n(C)c(=O)n(C)c1=O [YU145029]
Assay − Artifact Signal (percent) (JARID1B): 34.42% | inhibition at 20 µM (JARID1B; [2]): 61.6% | Assay Signal (percent) (JARID1B): 34.53% | Artifact Signal (percent) [1]: 0.11%

O=C(NC(=S)NCc1ccccc1)C1CCCC1 [YU147054]
Assay − Artifact Signal (percent) (JARID1B): 24.52% | inhibition at 20 µM (JARID1B; [2]): 33.9% | Assay Signal (percent) (JARID1B): 22.98% | Artifact Signal (percent) [1]: −1.54%

CCOc1cc(CN)cc(Cl)c1OCC.Cl [YU147266]
Assay − Artifact Signal (percent) (JARID1B): 69.10% | inhibition at 20 µM (JARID1B; [2]): 68.6% | Assay Signal (percent) (JARID1B): 69.21% | Artifact Signal (percent) [1]: 0.11%

O=C1c2c(O)cccc2Cc2cccc(O)c21 [YU033694, ANTHRALIN, reference compound]
Assay − Artifact Signal (percent) (JARID1B): 13.30% | inhibition at 20 µM (JARID1B; IDs marked *: additional hits under reaction condition with 1 mM α-KG): 51.7% | Assay Signal (percent) (JARID1B): 22.65% | Artifact Signal (percent) [1]: 9.35%
